# Tests used:
# Assay in all cases: relative viability (nuclei count vs DMSO), 5 days (fraction); higher = more cells survive
# [1] = compound: C1CSC2=C(C(=O)N1)SC3=C2C=C(C=C3)O [kb NB 142-70] + Nc1nc2[nH]cc(CCc3ccc(C(=O)N[C@@H](CCC(=O)O)C(=O)O)cc3)c2c(=O)[nH]1 [Pemetrexed] (partner 0.2 µM)
# Summary of the method: (§1)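 Cells from lung cancer lines were seeded into 1536-well plates and, one day later, dosed by pin tool. Treatments were either a single drug or a fixed dose of an anchor drug with five library-drug doses (not always all listed) in √10 steps. After 5 days, nuclei were stained in a one-step fixation (final 0.05% Triton X-100, 1% formaldehyde, 1 ug/ml Hoechst) and counted on 4× images, and relative viability is the treated-to-vehicle nuclei ratio, as the median of duplicate plates.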
# kb NB 142-70 + Olaparib = compound: C1CSC2=C(C(=O)N1)SC3=C2C=C(C=C3)O [kb NB 142-70] + O=C(c1cc(Cc2n[nH]c(=O)c3ccccc23)ccc1F)N1CCN(C(=O)C2CC2)CC1 [Olaparib] (partner 8 µM)
# Summary of the method: as §1
# [2] = compound: NCC(=O)Nc1ccc(-n2nc(C(F)(F)F)cc2-c2ccc3c(ccc4ccccc43)c2)cc1 + O=C(CCCCCCC(=O)Nc1ccccc1)NO [Vorinostat] (partner 1 µM)
# Summary of the method: as §1
# [3] = compound: NCC(=O)Nc1ccc(-n2nc(C(F)(F)F)cc2-c2ccc3c(ccc4ccccc43)c2)cc1 + CS(=O)(=O)N1CCN(Cc2cc3nc(-c4cccc5[nH]ncc45)nc(N4CCOCC4)c3s2)CC1 [Pictilisib] (partner 1 µM)
# Summary of the method: as §1
cell line,measurement,setting,value
NCI-H596,relative viability,[1]; first compound 0.1 µM,0.484
same,relative viability,[1]; first compound 1 µM,0.507
same,relative viability,[1]; first compound 3.162 µM,0.461
same,relative viability,kb NB 142-70 + Olaparib; first compound 0.1 µM,0.658
same,relative viability,kb NB 142-70 + Olaparib; first compound 1 µM,0.579
same,relative viability,kb NB 142-70 + Olaparib; first compound 3.162 µM,0.788
same,relative viability,[2]; first compound 0.02 µM,0.636
same,relative viability,[2]; first compound 0.06325 µM,0.705
same,relative viability,[2]; first compound 0.2 µM,0.706
same,relative viability,[2]; first compound 0.6325 µM,0.731
same,relative viability,[2]; first compound 2 µM,0.526
same,relative viability,[3]; first compound 0.02 µM,0.412
same,relative viability,[3]; first compound 0.06325 µM,0.458
same,relative viability,[3]; first compound 0.2 µM,0.425
same,relative viability,[3]; first compound 0.6325 µM,0.404
same,relative viability,[3]; first compound 2 µM,0.407
NCI-H647,relative viability,[1]; first compound 0.1 µM,0.186
same,relative viability,[1]; first compound 1 µM,0.192
same,relative viability,[1]; first compound 3.162 µM,0.178
same,relative viability,kb NB 142-70 + Olaparib; first compound 0.1 µM,0.549
same,relative viability,kb NB 142-70 + Olaparib; first compound 1 µM,0.495
same,relative viability,kb NB 142-70 + Olaparib; first compound 3.162 µM,0.539
same,relative viability,[2]; first compound 0.02 µM,0.409
same,relative viability,[2]; first compound 0.06325 µM,0.539
same,relative viability,[2]; first compound 0.2 µM,0.578
same,relative viability,[2]; first compound 0.6325 µM,0.411
same,relative viability,[2]; first compound 2 µM,0.486
same,relative viability,[3]; first compound 0.06325 µM,0.479
same,relative viability,[3]; first compound 0.2 µM,0.548
same,relative viability,[3]; first compound 0.6325 µM,0.406
same,relative viability,[3]; first compound 2 µM,0.496
NCI-H650,relative viability,[1]; first compound 0.1 µM,1.07
same,relative viability,[1]; first compound 1 µM,1.03
same,relative viability,[1]; first compound 3.162 µM,0.843
same,relative viability,kb NB 142-70 + Olaparib; first compound 0.1 µM,0.417
same,relative viability,kb NB 142-70 + Olaparib; first compound 1 µM,0.374
same,relative viability,kb NB 142-70 + Olaparib; first compound 3.162 µM,0.267
same,relative viability,[2]; first compound 0.02 µM,0.469
same,relative viability,[2]; first compound 0.06325 µM,0.424
same,relative viability,[2]; first compound 0.2 µM,1.29
same,relative viability,[2]; first compound 0.6325 µM,0.369
same,relative viability,[2]; first compound 2 µM,0.361
same,relative viability,[3]; first compound 0.02 µM,0.843
same,relative viability,[3]; first compound 0.06325 µM,0.913
same,relative viability,[3]; first compound 0.2 µM,1.05
same,relative viability,[3]; first compound 0.6325 µM,0.782
same,relative viability,[3]; first compound 2 µM,0.948
NCI-H661,relative viability,[1]; first compound 0.1 µM,0.967
same,relative viability,[1]; first compound 1 µM,0.867
same,relative viability,[1]; first compound 3.162 µM,0.856
same,relative viability,kb NB 142-70 + Olaparib; first compound 0.1 µM,0.731
same,relative viability,kb NB 142-70 + Olaparib; first compound 1 µM,0.733
same,relative viability,kb NB 142-70 + Olaparib; first compound 3.162 µM,0.759
same,relative viability,[2]; first compound 0.02 µM,0.811
same,relative viability,[2]; first compound 0.06325 µM,0.817
same,relative viability,[2]; first compound 0.2 µM,0.774
same,relative viability,[2]; first compound 0.6325 µM,0.821
same,relative viability,[2]; first compound 2 µM,0.784
same,relative viability,[3]; first compound 0.02 µM,0.453
same,relative viability,[3]; first compound 0.06325 µM,0.389
same,relative viability,[3]; first compound 0.2 µM,0.357
same,relative viability,[3]; first compound 0.6325 µM,0.325
same,relative viability,[3]; first compound 2 µM,0.407
NCI-H838,relative viability,[1]; first compound 0.1 µM,0.257
same,relative viability,[1]; first compound 1 µM,0.248
same,relative viability,[1]; first compound 3.162 µM,0.245
same,relative viability,kb NB 142-70 + Olaparib; first compound 0.1 µM,0.73
same,relative viability,kb NB 142-70 + Olaparib; first compound 1 µM,0.787
same,relative viability,kb NB 142-70 + Olaparib; first compound 3.162 µM,0.739
same,relative viability,[2]; first compound 0.02 µM,0.772
same,relative viability,[2]; first compound 0.06325 µM,0.708
same,relative viability,[2]; first compound 0.2 µM,0.857
same,relative viability,[2]; first compound 0.6325 µM,0.681
same,relative viability,[2]; first compound 2 µM,0.728
same,relative viability,[3]; first compound 0.02 µM,0.474
same,relative viability,[3]; first compound 0.06325 µM,0.441
same,relative viability,[3]; first compound 0.2 µM,0.5
same,relative viability,[3]; first compound 0.6325 µM,0.432
same,relative viability,[3]; first compound 2 µM,0.45
NCI-H1355,relative viability,[1]; first compound 0.1 µM,0.943
same,relative viability,[1]; first compound 1 µM,1.06
same,relative viability,[1]; first compound 3.162 µM,1.04
same,relative viability,kb NB 142-70 + Olaparib; first compound 0.1 µM,0.818
same,relative viability,kb NB 142-70 + Olaparib; first compound 1 µM,0.744
same,relative viability,kb NB 142-70 + Olaparib; first compound 3.162 µM,0.775
same,relative viability,[2]; first compound 0.02 µM,0.636
same,relative viability,[2]; first compound 0.06325 µM,0.709
same,relative viability,[2]; first compound 0.2 µM,0.676
same,relative viability,[2]; first compound 0.6325 µM,0.655
same,relative viability,[2]; first compound 2 µM,0.653
same,relative viability,[3]; first compound 0.02 µM,0.388
same,relative viability,[3]; first compound 0.06325 µM,0.491
same,relative viability,[3]; first compound 0.2 µM,0.339
same,relative viability,[3]; first compound 0.6325 µM,0.411
same,relative viability,[3]; first compound 2 µM,0.552
NCI-H1395,relative viability,[1]; first compound 0.1 µM,0.915
same,relative viability,[1]; first compound 1 µM,0.872
same,relative viability,[1]; first compound 3.162 µM,0.833
same,relative viability,kb NB 142-70 + Olaparib; first compound 0.1 µM,0.45
same,relative viability,kb NB 142-70 + Olaparib; first compound 1 µM,0.492
same,relative viability,kb NB 142-70 + Olaparib; first compound 3.162 µM,0.43
same,relative viability,[2]; first compound 0.02 µM,0.761
same,relative viability,[2]; first compound 0.06325 µM,0.82
same,relative viability,[2]; first compound 0.2 µM,0.686
same,relative viability,[2]; first compound 0.6325 µM,0.646
same,relative viability,[2]; first compound 2 µM,0.924
same,relative viability,[3]; first compound 0.02 µM,0.648
same,relative viability,[3]; first compound 0.06325 µM,0.641
same,relative viability,[3]; first compound 0.2 µM,0.581
same,relative viability,[3]; first compound 0.6325 µM,0.563
same,relative viability,[3]; first compound 2 µM,0.642
NCI-H1437,relative viability,[1]; first compound 0.1 µM,0.297
same,relative viability,[1]; first compound 1 µM,0.359
same,relative viability,[1]; first compound 3.162 µM,0.349
same,relative viability,kb NB 142-70 + Olaparib; first compound 0.1 µM,0.625
same,relative viability,kb NB 142-70 + Olaparib; first compound 1 µM,0.663
same,relative viability,kb NB 142-70 + Olaparib; first compound 3.162 µM,0.57
same,relative viability,[2]; first compound 0.02 µM,0.834
same,relative viability,[2]; first compound 0.06325 µM,0.866
same,relative viability,[2]; first compound 0.2 µM,0.887
same,relative viability,[2]; first compound 0.6325 µM,0.802
same,relative viability,[2]; first compound 2 µM,0.754
same,relative viability,[3]; first compound 0.02 µM,0.542
same,relative viability,[3]; first compound 0.06325 µM,0.411
same,relative viability,[3]; first compound 0.2 µM,0.421
same,relative viability,[3]; first compound 0.6325 µM,0.523
same,relative viability,[3]; first compound 2 µM,0.456
NCI-H1650,relative viability,[1]; first compound 0.1 µM,0.315
same,relative viability,[1]; first compound 1 µM,0.419
same,relative viability,[1]; first compound 3.162 µM,0.481
same,relative viability,kb NB 142-70 + Olaparib; first compound 0.1 µM,0.9
same,relative viability,kb NB 142-70 + Olaparib; first compound 1 µM,0.881
same,relative viability,kb NB 142-70 + Olaparib; first compound 3.162 µM,0.854
same,relative viability,[2]; first compound 0.02 µM,0.71
same,relative viability,[2]; first compound 0.06325 µM,0.676
same,relative viability,[2]; first compound 0.2 µM,0.556
same,relative viability,[2]; first compound 0.6325 µM,0.692
same,relative viability,[2]; first compound 2 µM,0.559
same,relative viability,[3]; first compound 0.02 µM,0.616
same,relative viability,[3]; first compound 0.06325 µM,0.656
same,relative viability,[3]; first compound 0.2 µM,0.215
same,relative viability,[3]; first compound 0.6325 µM,0.652
same,relative viability,[3]; first compound 2 µM,0.556

# — the supplement of paper PMC10307832
